Data as given in patent US7045532B2 (Millennium Pharmaceuticals, Inc., priority 1999, dated 2006).
Read-outs that look alike come from different tables or passages of the source.

Tests used:
Carboxypeptidase A = biological target: T1, Carboxypeptidase A (Bos taurus, UniProt P00730); assay: Carboxypeptidase A activity assay; assay type: biochemical; details: Ki class; compounds tested in 5% DMSO, 12 concentrations
T1 sequence (P00730 111-419): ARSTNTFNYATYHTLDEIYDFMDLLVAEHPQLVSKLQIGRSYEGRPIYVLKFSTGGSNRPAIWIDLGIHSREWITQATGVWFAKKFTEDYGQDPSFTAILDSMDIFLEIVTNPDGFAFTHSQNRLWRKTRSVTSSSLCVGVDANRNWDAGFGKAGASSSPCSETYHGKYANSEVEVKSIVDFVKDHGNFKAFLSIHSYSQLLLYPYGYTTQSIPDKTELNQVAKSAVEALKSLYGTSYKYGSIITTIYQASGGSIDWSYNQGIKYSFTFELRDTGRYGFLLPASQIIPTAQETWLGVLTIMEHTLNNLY
Protocol: Carboxypeptidase A activity was measured using a literature assay (Holmquist and Riordan, “Carboxypeptidase A,” Methods of Enzymatic Analysis (1984) p. 44–60). The assay was adapted to a 96 well format by adjusting to a 300 μL assay volume and using ultra-thin bottom plates (Costar/Corning) read at 328 nm. The assay was stopped using EDTA.
The activity of the test compounds was investigated using the procedure outlined above. The compounds were tested in 5% DMSO. Enzyme activity was measured at 12 compound concentrations. The Ki was calculated by using Ki=Kiapp/(1+[S]/Km).
To determine whether a test compound is capable of modulating carboxypeptidase A's ability to cleave a substrate the method described in Holmquist and Riordan, Carboxypeptidase A, p44–60, Peptidase and Their Inhibitors in Method of Enzymatic Analysis (1984), may be used.
The assay may be adapted to a 96 well format by adjusting to a 300 μl assay volume and using ultrathin bottom plates (Costar/Coming) read at 328 nm with a final assay volume of 300 μl. The assay may be stopped using EDTA.

ACE (Sigma, A2580) = biological target: T2, ACE (Sigma, A2580) (Sus scrofa, UniProt F1RRW5); assay: ACE enzymatic activity assay; assay type: biochemical, porcine; details: Ki class; compounds tested in 5% DMSO, 12 concentrations
T2 construct: ACE from porcine kidney; purchased Sigma A2580; host or cells: porcine kidney
T2 sequence (F1RRW5 34-1309): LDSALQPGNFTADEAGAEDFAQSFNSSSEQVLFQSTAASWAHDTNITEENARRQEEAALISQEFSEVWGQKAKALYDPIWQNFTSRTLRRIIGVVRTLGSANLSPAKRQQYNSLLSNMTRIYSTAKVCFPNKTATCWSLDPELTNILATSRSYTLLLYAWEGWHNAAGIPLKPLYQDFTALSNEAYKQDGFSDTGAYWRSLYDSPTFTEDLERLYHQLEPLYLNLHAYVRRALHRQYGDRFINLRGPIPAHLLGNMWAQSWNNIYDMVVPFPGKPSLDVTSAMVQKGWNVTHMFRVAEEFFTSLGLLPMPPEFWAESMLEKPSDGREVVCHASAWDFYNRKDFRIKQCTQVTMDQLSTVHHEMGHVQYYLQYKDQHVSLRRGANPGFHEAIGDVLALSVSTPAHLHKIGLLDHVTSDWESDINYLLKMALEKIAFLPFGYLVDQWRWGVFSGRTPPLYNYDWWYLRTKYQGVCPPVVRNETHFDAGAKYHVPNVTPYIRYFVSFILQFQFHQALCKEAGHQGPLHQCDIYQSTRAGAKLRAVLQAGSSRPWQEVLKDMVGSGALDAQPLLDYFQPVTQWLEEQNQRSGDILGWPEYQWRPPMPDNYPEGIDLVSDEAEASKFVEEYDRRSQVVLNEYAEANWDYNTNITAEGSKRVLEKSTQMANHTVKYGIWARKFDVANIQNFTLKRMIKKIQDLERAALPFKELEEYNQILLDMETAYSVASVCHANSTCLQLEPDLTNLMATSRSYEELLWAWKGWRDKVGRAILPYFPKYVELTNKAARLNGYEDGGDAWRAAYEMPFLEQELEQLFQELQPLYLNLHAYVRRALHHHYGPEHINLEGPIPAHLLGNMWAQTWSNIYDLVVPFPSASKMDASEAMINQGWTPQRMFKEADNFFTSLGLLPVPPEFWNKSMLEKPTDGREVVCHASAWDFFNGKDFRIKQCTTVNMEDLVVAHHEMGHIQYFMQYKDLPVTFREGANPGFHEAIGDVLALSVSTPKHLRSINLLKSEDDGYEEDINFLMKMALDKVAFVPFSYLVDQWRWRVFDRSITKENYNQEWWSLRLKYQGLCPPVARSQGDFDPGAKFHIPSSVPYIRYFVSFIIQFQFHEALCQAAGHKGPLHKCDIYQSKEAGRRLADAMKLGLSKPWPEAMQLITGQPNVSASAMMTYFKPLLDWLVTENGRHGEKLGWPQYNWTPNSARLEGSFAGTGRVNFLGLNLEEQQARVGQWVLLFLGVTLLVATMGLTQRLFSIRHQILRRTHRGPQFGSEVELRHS
Protocol: ACE (Sigma, A2580) enzymatic activity was assayed in microtiter plates using the following protocol. ACE assay buffer was made from 50 mM HEPES (Sigma), 300 mM sodium chloride (Sigma), and 0.01% Brij-35 (Pierce Chemical Co) at pH 7.5.
Reactions were mixed and incubated at 25° C. Enzymatic cleavage of the substrate is marked by a fluorescence change (excitation 330 nm, emission 415 nm).
The activity of the test compounds was investigated using the procedure outlined above. The compounds were tested in 5% DMSO. Enzyme activity was measured at 12 compound concentrations. […]. […]

ACE-2 = biological target: T3, ACE-2 (Homo sapiens, UniProt Q9BYF1); assay: ACE-2 Competitive Substrate Assay (ACS Assay); assay type: biochemical
T3 construct: a stop codon inserted after the serine immediately preceding the transmembrane domain; made in house; host or cells: CHO K1 cells (transient transfection, purified from conditioned medium)
T3 sequence (Q9BYF1 18-740 limits assumed): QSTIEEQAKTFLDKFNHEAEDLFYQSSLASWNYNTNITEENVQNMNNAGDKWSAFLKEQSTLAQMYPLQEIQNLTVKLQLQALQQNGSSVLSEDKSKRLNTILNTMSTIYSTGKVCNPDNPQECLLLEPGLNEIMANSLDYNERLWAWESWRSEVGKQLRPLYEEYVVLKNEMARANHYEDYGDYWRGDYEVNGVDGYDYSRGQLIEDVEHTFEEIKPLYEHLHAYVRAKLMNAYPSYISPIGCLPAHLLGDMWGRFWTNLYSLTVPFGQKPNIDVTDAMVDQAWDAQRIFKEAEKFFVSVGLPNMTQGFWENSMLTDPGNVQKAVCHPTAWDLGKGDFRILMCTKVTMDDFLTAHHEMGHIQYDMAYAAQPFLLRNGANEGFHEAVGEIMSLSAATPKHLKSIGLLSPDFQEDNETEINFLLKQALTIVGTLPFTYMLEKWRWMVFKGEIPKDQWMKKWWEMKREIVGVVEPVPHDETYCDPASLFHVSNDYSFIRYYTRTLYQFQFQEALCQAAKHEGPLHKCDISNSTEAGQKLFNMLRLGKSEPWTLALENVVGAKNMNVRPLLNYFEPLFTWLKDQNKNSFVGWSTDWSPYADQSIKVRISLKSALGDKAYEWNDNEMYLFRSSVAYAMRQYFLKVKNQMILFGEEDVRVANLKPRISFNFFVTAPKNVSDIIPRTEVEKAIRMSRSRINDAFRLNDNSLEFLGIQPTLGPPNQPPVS

[1] = Ki class, compounds tested in 5% DMSO, 12 concentrations, read-out: Human ACE-2 Activity
[2] = Ki class, compounds tested in 5% DMSO, 12 compound concentrations, Ki=Kiapp/(1+[S]/Km), read-out: Human ACE-2 Activity
[3] = Ki class per key, compounds tested in 5% DMSO, 12 compound concentrations, 25° C., Ki=Kiapp/(1+[S]/Km), read-out: Human ACE-2 Activity

Compound	Ki (Carboxypeptidase A) [µM]	Ki (ACE (Sigma, A2580)) [µM]	further results
CC(C)C[C@H](NC(CCc1ccccc1)C(=O)O)C(=O)O (stereo partly shown) [C, 2-(1-Carboxy-3-phenyl-propylamino)-4-methyl-pentanoic acid]		> 50	Ki (ACE-2; [1]): > 0.5 µM
CC(C)CC(NC(Cc1cncn1Cc1cccc([N+](=O)[O-])c1)C(=O)O)C(=O)O (stereo not shown) [GA]	10 to 50	> 50	
CC(=O)N(C(CCc1ccccc1)C(=O)O)[C@@H](CC(C)C)C(=O)O (single isomer, unassigned) [AU, 2-[Acetyl-(1-carboxy-3-phenyl-propyl)-amino]-4-methyl-pentanoic acid]	> 50	> 50	
CC(C)CC(N[C@@H](Cc1c[nH]cn1)C(N)=O)C(=O)O (single isomer, unassigned) [EW, 2-[1-Carbamoyl-2-(1H-imidazol-4-yl)-ethylamino]4-methyl-pentanoic acid]	> 50	> 50	
CC(C)CC(N[C@@H](Cc1cncn1Cc1ccc(Cl)cc1)C(=O)O)C(=O)O (single isomer, unassigned) [GN, 2-[1-Carboxy-2-[3-(4-chloro-benzyl)-3H-imidazol-4-yl]-ethylamino]4-methyl-pentanoic acid]	> 50	> 50	
2-[2-(3-Benzyl-3H-imidazol-4-yl)-1-carboxy-ethylamino]-butync acid [GG]	> 50	> 50	
4-Methyl-2-(3-phenethyl-ureido)-pentanoic acidmethyl ester [DG]	> 50	> 50	
CC(C)CC(N[C@@H](Cc1cn(Cc2ccccc2)cn1)C(=O)O)C(=O)O (single isomer, unassigned) [DM, 2-[2-(1-Benzyl-1H-imidazol-4-yl)-1-carboxy-ethylamino]-4-methyl-pentanoic acid]	> 50	> 50	
CC(C)C[C@H](N[C@@H](CNC(=O)c1cccc(Cl)c1)C(=O)O)C(=O)O [LI, (S,S)-2-[1-Carboxy-2-(3-chloro-benzoylamino)-ethylamino]-4-methyl-pentanoic acid]			Ki (ACE-2; [2]): > 0.5 µM
CC(C)C[C@H](N[C@@H](Cc1ccc(-c2cccnc2)cc1)C(=O)O)C(=O)O [PJ, (S,S)-2-[1-Carboxy-2-(4-pyridin-3-yl-phenyl)-ethylamino]-4-methyl-pentanoic acid]			Ki (ACE-2; [3]): < 0.1 µM; Ki (ACE-2; Table 3, very good ACE-2 inhibiting compounds, species not given, read-out: ACE-2 Activity, Ki): 0.05 to 0.1 µM
CC(C)C[C@H](N[C@@H](CC(=O)Nc1nc(-c2ccccc2)cs1)C(=O)O)C(=O)O [OH, (S,S)-2-[1-Carboxy-2-(4-phenyl-thiazol-2-ylcarbamoyl)-ethylamino]-4-methyl-pentanoic acid]			Ki (ACE-2; [2]): > 0.5 µM
CC(C)C[C@H](N[C@@H](Cc1ccc(OCc2cccnc2)cc1)C(=O)O)C(=O)O [LX, S,S-2-{1-Carboxy-2-[4-(pyridin-3-ylmethoxy)-phenyl]-ethylamino}-4-methyl pentanoic acid]			Ki (ACE-2; [2]): 0.1 to 0.5 µM
CC(C)C[C@H](N[C@@H](Cc1ccc(C(=O)NCc2cc(F)cc(F)c2)cc1)C(=O)O)C(=O)O [QD, 2-[1-Carboxy-2-[4-(3,5-difluoro-benzylcarbamoyl)phenyl]-ethylamino]-4-methyl-pentanoic acid]			Ki (ACE-2; [3]): > 0.5 µM
CC(C)CC(N[C@@H](Cc1cncn1CC1CCCCC1)C(=O)O)C(=O)O (single isomer, unassigned) [JG, 2-[1-Carboxy-2-(3-cyclohexylmethyl-3H-imidazol-4-yl)-ethylamino]4-methyl-pentanoic acid]			Ki (ACE-2; [2]): > 0.5 µM
CC(C)C[C@H](N[C@@H](Cc1cc(-c2ccccc2Cl)on1)C(=O)O)C(=O)O [QV, 2-[1-Carboxy-2-[5-(2-chloro-phenyl)-isoxazol-3-yl]-ethylamino]-4-methyl-pentanoic acid]			Ki (ACE-2; [3]): < 0.1 µM
CC(C)C[C@H](N[C@@H](Cc1ccc(OCCc2ccccc2)cc1)C(=O)O)C(=O)O [LT, 2-[1-Carboxy-2-(4-phenethyloxy-phenyl)-ethylamino]-4-methyl-pentanoic acid]			Ki (ACE-2; [2]): 0.1 to 0.5 µM
CC(C)C[C@H](N[C@@H](Cc1cccc(-c2cc(Cl)cc(Cl)c2)c1)C(=O)O)C(=O)O [MI, (S,S)-2-[1-Carboxy-2-(3,′5′-dichloro-biphenyl-3-yl)-ethylamino]-4-methyl-pentanoic acid]			Ki (ACE-2; [2]): 0.1 to 0.5 µM
CC(C)C[C@H](N[C@@H](Cn1ccn(Cc2ccc(F)cc2)c1=O)C(=O)O)C(=O)O [NQ, 2-{1-Carboxy-2-[3-(4-fluoro-benzyl)-2-oxo-2,3-dihydro-imidazol-1-yl]-ethylamino}-4-methyl-pentanoic acid]			Ki (ACE-2; [2]): 0.1 to 0.5 µM
CC(C)C[C@H](N[C@@H](Cc1cccc(Cc2cc(Cl)cc(Cl)c2)c1)C(=O)O)C(=O)O [PG, (S,S)-2-{1-Carboxy-2-[3-(3,5-dichloro-benzyl)-phenyl]-ethylamino}-4-methyl-pentanoic acid]			Ki (ACE-2; [3]): 0.1 to 0.5 µM

Continued, in another order:

Ki (Carboxypeptidase A) [µM]	Ki (ACE (Sigma, A2580)) [µM]	Compound	further results
> 50	> 50	CC(C)CC(N[C@@H](Cc1c[nH]cn1)C(=O)Nc1ccc([N+](=O)[O-])cc1)C(=O)O (single isomer, unassigned) [EY, 2-[2-(1H-Imidazol-4-yl)-1-(4-nitro-phenylcarbamoyl)ethylamino]-4-methyl-pentanoic acid]	
10 to 50	> 50	CC(C)CC(N[C@@H](Cc1cn(Cc2ccc(Cl)cc2)cn1)C(=O)O)C(=O)O (stereo partly shown) [EU, 2-[1-Carboxy-2-[1-(4-chloro-benzyl)-1H-imidazol-4-yl]-ethylamino)4-methyl-pentanoic acid]	
> 50	> 50	CC(C)CC(N[C@@H](CNc1ccccc1)C(=O)O)C(=O)O (single isomer, unassigned) [FJ, 2-(1-Carboxy-2-phenylamino-ethylamino)-4-methyl-pentanoic acid]	
> 50	10 to 50	CC(C)CC(N[C@H](Cc1c[nH]cn1)C(=O)O)C(=O)O (single isomer, unassigned) [BJ, 2-[1-Carboxy-2-(1H-imidazol-4-yl)-ethylamino]4-methyl-pentanoic acid]	
	> 50	CC(CS)C(=O)O (stereo not shown) [G, 3-Mercapto-2-methyl-propionic acid]	Ki (ACE-2; [1]): > 0.5 µM
	> 50	CC(C)C[C@H](N[C@@H](CCc1ccccc1)C(=O)O)C(=O)O [D, 2-(1-Carboxy-3-phenyl-propylamino)-4-methyl-pentanoic acid]	Ki (ACE-2; [1]): > 0.5 µM
